Test results published in patent US10954200B1, “Anti-angiogenesis compound” (KING SAUD UNIVERSITY, priority 2019, dated 2021).

Assays:
PBMC cells [1] = assay: MTT cell viability assay, PBMC; type: cell-based, human; conditions: 48 h, read-out: IC50 value (μM) against PBMC cells, MTT assay
Description: (§1) Breast cancer cells (MCF-7), lung cancer cells (A549), Hela cells, and peripheral blood mononuclear cells (PBMC) were purchased from the National Center for Cell Sciences (NCCS), Pune, India. The cancer cells were maintained in Dulbecco's modified eagles medium (DMEM), supplemented with 2 mM 1-glutamine and balanced salt solution (BSS), adjusted to contain 1.5 g/L Na2CO3, 0.1 mM nonessential amino acids, 1 mM sodium pyruvate, 2 mM 1-glutamine, 1.5 g/L glucose, 10 mM (4-(2-hydroxyethyl)-1-piperazineethane sulfonic acid) (HEPES), and 10% fetal bovine serum (GIBCO, USA). Penicillin and streptomycin (100 IU/100 μg) were adjusted to 1 mL/L. The cells were maintained at 37° C. with 5% CO2 in a humidified CO2 incubator.
(§2) The inhibitory concentration (IC50) value was evaluated using an MTT [3-(4,5-dimethylthiazol-2-yl)-2,5-diphenyltetrazolium bromide] assay. Cancer cells were grown (1×10^4 cells/well) in a 96-well plate for 48 h to 75% confluence. The medium was replaced with fresh medium containing serially diluted synthesized compounds, and the cells were further incubated for 48 h. The culture medium was removed, and 100 μL of the MTT [3-(4,5-dimethylthiozol-2-yl)-3,5-diphenyl tetrazolium bromide] (Hi-Media, Mumbai, India) solution was added to each well and incubated at 37° C. for 4 h. […] The optical density was measured at 620 nm in an ELISA multiwell plate reader (Thermo Multiskan EX, USA). […]

PBMC cells [2] = assay: Trypan blue dye exclusion assay, PBMC; type: cell-based, human; conditions: 48 h, read-out: IC50 value (μM) against PBMC cells, Trypan blue assay
Description: as §1
(§3) The cytotoxic effects of synthesized compounds on various types of cancer cells were determined by trypan blue dye exclusion assay. The cultured cells were treated with the synthesized compounds and incubated for 48 h. After the incubation period, the cells were detached by 0.5% trypan-EDTA solution, harvested by centrifugation at 3000 rpm for 5 minutes and diluted in 1 ml of PBS. […] About 20 μl of cell suspensions were carefully and continuously filled in the haemocytometer chamber and viable cells were counted in 1×1 mm squares, four chambers and the average number of cells per square determined. Total viable cells were determined using the following formula, […]

caspase-3 = assay: Caspase-3 colorimetric assay; type: cell-based, human
Description: Using CPP32/Caspase-3 Colorimetric Assay Kit, the activated caspase was estimated as per manufacturer's protocol. The buffers used in the experiment were those supplied along with the kit. A549 cells (8×10^5 per 12.5 cm^2 culture flasks) were seeded with their respective growth medium and incubated for 24 h at 37° C. with/without 5% CO2. Then, confluent cells were added with the respective drug medium while maintaining an untreated group as a control. Cultures were incubated for 6 h, maintaining the same conditions, 0.1 mM Hydrogen Peroxide (H2O2) and 10 μM standard drug were used as positive control for activation of caspase-3. After treatment incubation, the detached cells in the supernatant were collected, and the adherent cells were trypsinized to add into the respective tubes. Subsequently, tubes were centrifuged at 1500 rpm for 10 min to acquire a cell pellet. […] The […] was transferred to fresh tubes and the protein concentrations of samples were determined by employing Bradford assay. […] Post-incubation, the plate was read at 405 nm in a Dynex Opsys MRTM Microplate Reader (Dynex Technologies, VA, USA). Percentage caspase-3 activation was calculated using the following formula: % Caspase-3 activation=[(At−Ac)/Ac]×100
“At” represents the mean absorbance of test wells and “Ac” represents the mean absorbance of the control wells.

EAC tumor = assay: In vivo EAC ascites tumor growth; conditions: for decrease of tumor volume, % of inhibition: three doses on alternate days
Description: The EAC tumor was obtained from Mahajana Education Center, BOC, in Biotechnology. Microbiology& Biochemistry Mahajana College, Mysore University, Mysore, Karnataka, India, and the same was induced into adult Swiss albino mice i.p and left for the growth.
The EAC tumor bearing mice (donor) were taken on the 12th day after tumor transplantation and the ascites fluid was drawn using an 18 gauge needle into a sterile syringe. Then the tumor cell viability was tested by trypan blue exclusion assay and the cells were counted using a haemocytometer. The ascites fluid was suitably diluted to get a concentration of 5×10^6/0.2 ml of tumor cell suspension. This was injected into the i.p cavity of Swiss mice to obtain ascites tumor and the process was repeated every 12 days.
Ascites tumor was obtained by injecting 5×10^6 viable tumor cells into i.p cavity of Swiss mice. Tumor growth was followed by recording the animal weights. These cells grew in the peritoneum of mice, forming an ascites tumor with enormous abdominal swelling and showing a profound increase in body weight. The EAC cells began their exponential growth phase from the 7th day after tumor cell injection and the animals succumbed to the ascites tumor burden between 16 to 20 days after injection of tumor cells.
(§4) The effect of potent synthesized compound BAMC on the modulation of neovessel and tumor growth was verified in EAC bearing animals. The EAC tumor bearing mice were grouped separately at two different concentrations (25 and 50 mg/Kg, b.w/i.p) of potent synthesized compounds and individually the groups were treated using a 26 gauge needle. Then, after the onset of tumor on the 4th day, three doses were given on every alternative day. The growth of the tumor was monitored by taking the body weight of the animals every day. Then, control animals were injected with 0.2 ml of saline (i.p) on every alternative day. In each treatment, at least six mice were taken and each experiment was repeated thrice. After the completion of treatment, the animals from each group were sacrificed on the 10th day and the EAC cells along with ascites fluid were harvested and the quantity was recorded. The peritoneum of the mice was cut open and the inner lining of the peritoneal cavity was examined for angiogenesis (vasculature) in compound-treated, tumor bearing mice. Finally, the inner lining of normal mice was also examined for vasculature and photographed using Sony steady shot DSC-W610 camera. These sets of animals were used to study the survivability analysis after treatment until their death.

cancer cells = assay: MTT and trypan blue assays, overall IC50; type: cell-based; conditions: read-out: anti-angiogenesis effect, IC50 values
Description: (§5) The inhibitory concentration (IC50) value was evaluated using an MTT [3-(4,5-dimethylthiazol-2-yl)-2,5-diphenyltetrazolium bromide] assay. Cancer cells were grown (1×10^4 cells/well) in a 96-well plate for 48 h to 75% confluence. The medium was replaced with fresh medium containing serially diluted synthesized compounds, and the cells were further incubated for 48 h. The culture medium was removed, and 100 μL of the MTT [3-(4,5-dimethylthiozol-2-yl)-3,5-diphenyl tetrazolium bromide] (Hi-Media, Mumbai, India) solution was added to each well and incubated at 37° C. for 4 h. After removal of the supernatant, 50 μL of DMSO was added to each of the wells and incubated for 10 min to solubilize the formazan crystals. The optical density was measured at 620 nm in an ELISA multiwell plate reader (Thermo Multiskan EX, USA). The OD value was used to calculate the percentage of viability using the following formula.
The cytotoxic effects of synthesized compounds on various types of cancer cells were determined by trypan blue dye exclusion assay. […] About 20 μl of cell suspensions were carefully and continuously filled in the haemocytometer chamber and viable cells were counted in 1×1 mm squares, four chambers and the average number of cells per square determined. Total viable cells were determined using the following formula, […]

[3] = test system: EAC induced angiogenesis in peritoneum; assay: Peritoneal angiogenesis assay; type: in vivo, Swiss albino mice
Description: as §4

A549 cells [4] = assay: Trypan blue dye exclusion assay, A549; type: cell-based; conditions: Homo sapiens, A549, 48 h; read-out: IC50 value (μM) against A549 cells, Trypan blue assay
Description: as §1, §3

NIH-3T3 cells = assay: Toxicity to NIH-3T3 cells; type: cell-based
Hela cells [5] = assay: Trypan blue dye exclusion assay, Hela; type: cell-based; conditions: Homo sapiens, 48 h, read-out: IC50 value (μM) against Hela cells, Trypan blue assay
Description: as §1, §3

[6] = test system: genomic DNA of cancer cells; assay: DNA fragmentation assay (apoptotic ladder); type: cell-based; conditions: treated vs untreated cells
Description: DNA damaging studies were carried out according to previously described methods. The DNA damaging activity of the compound on genomic DNA of both control and treated cells were evaluated by Phenol:Chloroform method. Briefly, the cells were first lysed using lysis buffer (50 mM Tris-Hcl, 0.5% SDS, pH 8.0) and incubated for 30 minutes at […]. The cell lysate was precipitated by using potassium acetate (8M) and incubated at 4° C. for 1 hr. The supernatant was mixed with phenol:Chloroform:isoamylalcohol at 25:24:1 ratio. This step was repeated thrice. DNA was precipitated by adding ice cold alcohol and precipitated DNA was air dried and dissolved by using appropriate amounts of TE Buffer (pH 8.0). Precipitated DNA was subjected to RNase digestion (2 μg/mL) for 1 hr at 37° C. The obtained DNA was quantified by using nanodrop (Eppendrof Ag 22331 Hamburg 6135EM402331) and equal amounts of (50 μg) of DNA were loaded to 1% agarose gel, observed under uv-trans illuminator, and documented.

EAC cells [7] = assay: MTT cell viability assay, EAC; type: cell-based, mouse; conditions: 48 h, read-out: IC50 value (μM) against EAC cells, MTT assay
Description: as §5

EAC cells [8] = assay: Trypan blue dye exclusion assay, EAC; type: cell-based, mouse; conditions: 48 h, read-out: IC50 value (μM) against EAC cells, Trypan blue assay
Description: The cytotoxic effects of synthesized compounds on various types of cancer cells were determined by trypan blue dye exclusion assay. The cultured cells were treated with the synthesized compounds and incubated for 48 h. After the incubation period, the cells were detached by 0.5% trypan-EDTA solution, harvested by centrifugation at 3000 rpm for 5 minutes and diluted in 1 ml of PBS. Then, 10 μl of trypan blue dye solution was added to each sample and cells were re-suspended. About 20 μl of cell suspensions were carefully and continuously filled in the haemocytometer chamber and viable cells were counted in 1×1 mm squares, four chambers and the average number of cells per square determined. Total viable cells were determined using the following formula,
The values were plotted in MS excel version 8.1, graphed and the inhibitory concentration-50 (IC50) values were estimated.

A549 cells [9] = assay: MTT cell viability assay, A549; type: cell-based; conditions: Homo sapiens, A549, 48 h; read-out: IC50 value (μM) against A549 cells, MTT assay
Description: as §1, §2

MCF-7 cells [10] = assay: Trypan blue dye exclusion assay, MCF-7; type: cell-based; conditions: Homo sapiens, MCF7; MCF-7, 48 h; read-out: IC50 value (μM) against MCF-7 cells, Trypan blue assay
Description: as §1, §3

MCF-7 cells [11] = assay: Colony formation assay; type: cell-based, human; conditions: 5, 10, 20 μM, 6 hours pretreatment, 12 days
Description: Long-term effects of the active compound were determined by colony formation with minor modifications. […] Surviving colonies were fixed and stained by using 0.5% crystal violet. Visible colonies were observed and colonies were counted and photographed.

Hela cells [12] = assay: MTT cell viability assay, Hela; type: cell-based; conditions: Homo sapiens, 48 h, read-out: IC50 value (μM) against Hela cells, MTT assay
Description: as §1, §2

A549 cells [13] = assay: Cancer cell migration (scratch wound) assay; type: cell-based; conditions: Homo sapiens, 48 h
Description: The A549 cells were cultured in a six well plate until they reached a confluence of 60-70%. A scratch was made to form a wound using a micropipette tip and the monolayer was washed with growth medium. Then, 2 ml medium containing different concentrations of test drugs was added to the respective wells, incubated for 48 h, fixed with chilled 70% ethanol and stained with crystal violet (0.4 g/l). Images were taken from random fields at regular time intervals using an inverted microscope (Bresser, Biolux). Finally, the percentage of cell migration was calculated by comparing the final gap width to initial gap width.

MCF-7 cells [14] = assay: MTT cell viability assay, MCF-7; type: cell-based; conditions: Homo sapiens, MCF7; MCF-7, 48 h; read-out: IC50 value (μM) against MCF-7 cells, MTT assay
Description: as §1, §2

Question: Which IC50 (PBMC cells [1]; Homo sapiens) does the source give for `Cc1ccccc1OCC(=O)NNC(=O)C1CN(Cc2ccccc2)CCO1` (centres unmarked) [BAMC, 4-Benzyl-N′-(2-(o-tolyloxy)acetyl) morpholine-2-carbohydrazide] here?
Answer: 89.9 ± 3.5 µM

Question: What about the IC50 (PBMC cells [2]; Homo sapiens) of the same compound?
Answer: 85.7 ± 0.7 µM

Question: What about the “percentage of caspase-3 activation” value (caspase-3; MCF-7, BAMC concentration not stated) of the same compound?
Answer: 84.5%

Question: And the “decrease of tumor volume, % of inhibition” value (EAC tumor; EAC mice, 25 mg/kg bw i.p.)?
Answer: 74.35%

Question: And the “decrease of tumor volume, % of inhibition” value (EAC tumor; EAC mice, 50 mg/kg bw i.p.)?
Answer: 80.2%

Question: What about the “adverse effect on normal lymphoid organs (morphology of kidney, liver, spleen)” value (EAC tumor; EAC mice, 25 and 50 mg/kg) of the same compound?
Answer: did not show any symptoms of adverse effect

Question: And the cell density reduction (EAC tumor; EAC mice, 25 and 50 mg/kg, concentration dependent)?
Answer: six fold reduction

Question: What about the “body weight of tumor bearing mice” value (EAC tumor; EAT bearing mice, treated vs control) of the same compound?
Answer: significant decrease in body weight

Question: And the IC50 (cancer cells)?
Answer: ~5.5 µM

Question: And the “regression of EAC induced angiogenesis in peritoneum” value ([3]; first value of 'respectively' (25 mg/kg))?
Answer: 40%

Question: And the “regression of EAC induced angiogenesis in peritoneum” value ([3]; second value of 'respectively' (50 mg/kg))?
Answer: 15%

Question: What about the IC50 (A549 cells [4]) of the same compound?
Answer: 5.8 ± 0.7 µM

Question: What about the “toxicity to NIH-3T3 cells” value (NIH-3T3 cells) of the same compound?
Answer: ~97 µM

Question: What about the IC50 (Hela cells [5]) of the same compound?
Answer: 5.2 ± 1.3 µM

Question: And the “DNA fragmentation (apoptotic ladder), agarose gel” value [6]?
Answer: typical “ladder (A)” formation of DNA

Question: What about the IC50 (EAC cells [7]; Mus musculus) of the same compound?
Answer: 6.7 ± 1.8 µM

Question: What about the IC50 (EAC cells [8]; Mus musculus) of the same compound?
Answer: 6.8 ± 1.4 µM

Question: And the IC50 (A549 cells [9])?
Answer: 5.6 ± 1 µM

Question: What about the IC50 (MCF-7 cells [10]) of the same compound?
Answer: 4.6 ± 1.1 µM

Question: And the “colony formation (colonogenic efficiency)” value (MCF-7 cells [11])?
Answer: visibly diminished the colonogenic efficiency of MCF-7 cells

Question: What about the IC50 (Hela cells [12]) of the same compound?
Answer: 4.9 ± 0.2 µM

Question: And the inhibition at 10 µM (A549 cells [13]; A549, 10 μM)?
Answer: 13%

Question: What about the inhibition at 20 µM (A549 cells [13]; A549, 20 μM) of the same compound?
Answer: 72.3%

Question: What about the IC50 (MCF-7 cells [14]) of the same compound?
Answer: 4.5 ± 2 µM

Question: What does the source list for `N.N.[Cl][Pt][Cl]` [Cisplatin, reference compound]?
Answer: IC50 (PBMC cells [1]): 91.4 ± 1.1 µM; IC50 (PBMC cells [2]): 96.1 ± 0.8 µM; IC50 (EAC cells [7]): 4.9 ± 1.1 µM; IC50 (EAC cells [8]): 4.4 ± 1.3 µM

Question: With `OO` [H2O2, Hydrogen Peroxide, reference compound] as the compound, how does the “percentage of caspase-3 activation” value (caspase-3; MCF-7, 0.1 mM, positive control) read?
Answer: 91.1%
